Data as given in PMC8667930, “Novel sulphonamide-bearing methoxyquinazolinone derivatives as anticancer and apoptosis inducers: synthesis, biological evaluation and in silico studies” (Journal of Enzyme Inhibition and Medicinal Chemistry, 2021).
Blank lines part the entries; values can stand above or below the compound they belong to.

Assays:
[1] = system: A549 cells (non-small cell lung carcinoma); experiment: MTT cytotoxicity assay, A549; format: cell-based; conditions: mean ± SD (n = 3), NA = no activity; for IC50: Homo sapiens, A549, 48 h treatment; for IC50, A549: 48 h treatment
Experimental: (§1) The MTT assay was performed to test the antiproliferative activity of the synthesised compounds, as per the methodology described by Alqahtani and co-workers[35]. Briefly, A549, HepG2, LoVo, MCF-7 and HUVEC cell lines were seeded in 96-cell culture plates (5 × 10^4 per well) and allowed 24 h for adherence. The cells were then treated with different concentrations of each compound, and 5-fluorouracil was used as a positive control. Following the treatment period (48 h), 10 µL of MTT solution (5 mg/mL) was added to each well and the plates were incubated at 37 °C for 2–4 h. Isopropanol (100 µL) acidified with 0.1 N HCl was added to solubilise the formazan products and the plate was kept on a shaker for 10 min. The optical density of each mixture was measured at 570 nm using an enzyme-linked immunosorbent assay plate reader (ELISA plate reader, Bio-Tek, USA). The concentrations of tested compounds required to inhibit cell growth by 50% (IC50) were calculated using a dose-response curve. Cell survival was calculated using the following equation: Cell survival (%)=(OD of treated sample)/(OD of untreated sample)×100

[2] = system: HepG2 cells (liver cancer); experiment: MTT cytotoxicity assay, HepG2; format: cell-based; conditions: mean ± SD (n = 3), NA = no activity; for IC50: Homo sapiens, HepG2, 48 h treatment; for IC50, HepG2: 48 h treatment
Experimental: as §1

[3] = system: LoVo cells (colon cancer); experiment: MTT cytotoxicity assay, LoVo; format: cell-based; conditions: 48 h treatment, mean ± SD (n = 3), NA = no activity; for IC50: Homo sapiens, LoVo
Experimental: as §1

[4] = system: MCF-7 cells (human breast cancer cell line); experiment: MTT cytotoxicity assay, MCF-7; format: cell-based; conditions: mean ± SD (n = 3), NA = no activity; for IC50: Homo sapiens, MCF7, 48 h treatment; for IC50, MCF-7: 48 h treatment
Experimental: as §1

[5] = system: HUVEC (normal human umbilical vein endothelial cells); experiment: MTT cytotoxicity assay, HUVEC; format: cell-based; conditions: 48 h treatment, mean ± SD (n = 3), NA = no activity; for IC50: Homo sapiens, HUVEC
Experimental: as §1

SMILES: O=c1[nH]cc(F)c(=O)[nH]1 [5-Flurouracil, 5-Fluorouracil, reference compound]
IC50 [1]: 98.86 ± 0.01 µM
IC50 [2]: 132.4 ± 0.6 µM
IC50 [3]: 90.71 ± 0.5 µM
IC50 [4]: 95.63 ± 0.3 µM
IC50 [5]: 167 ± 0.2 µM

melting point: > 350 °C
SMILES: COc1cccc2c(=O)n(-c3ccc(S(N)(=O)=O)cc3)c(SCC(=O)Nc3ccccc3)nc12 [Compound 5, 2-((8-Methoxy-4-oxo-3–(4-sulphamoylphenyl)-3,4-dihydroquinazolin-2-yl)thio)-N-phenyl-acetamide]
IC50, A549 [1]: no activity
IC50, HepG2 [2]: no activity
IC50, LoVo [3]: no activity
IC50, MCF-7 [4]: no activity
IC50, HUVEC [5]: no activity

melting point: > 350 °C
SMILES: COc1cccc2c(=O)n(-c3ccc(S(N)(=O)=O)cc3)c(SCC(=O)Nc3cccc(C)c3)nc12 [Compound 7, 2-((8-Methoxy-4-oxo-3-(4-sulphamoylphenyl)-3,4-dihydroquinazolin-2-yl)thio)-N-(m-tolyl) acetamide]
IC50 [1]: 58.6 ± 1.52 µM
IC50 [2]: 39.7 ± 2.27 µM
IC50 [3]: 30.1 ± 1.3 µM
IC50 [4]: 27.7 ± 1.85 µM
IC50 [5]: 83.2 ± 0.9 µM

melting point: > 350 °C
SMILES: COc1cccc2c(=O)n(-c3ccc(S(N)(=O)=O)cc3)c(SCC(=O)Nc3ccc(C)cc3)nc12 [Compound 8, 2-((8-Methoxy-4-oxo-3-(4-sulphamoylphenyl)-3,4-dihydroquinazolin-2-yl)thio)-N-(p-tolyl) acetamide]
IC50, A549 [1]: no activity
IC50, HepG2 [2]: no activity
IC50, LoVo [3]: no activity
IC50, MCF-7 [4]: no activity
IC50, HUVEC [5]: no activity

melting point: 288 to 290 °C
SMILES: CCc1ccccc1NC(=O)CSc1nc2c(OC)cccc2c(=O)n1-c1ccc(S(N)(=O)=O)cc1 [Compound 9, N-(2-Ethylphenyl)-2-((8-methoxy-4-oxo-3-(4-sulphamoylphenyl)-3,4-dihydroquinazolin-2-yl)thio) acetamide]
IC50, A549 [1]: no activity
IC50, HepG2 [2]: no activity
IC50, LoVo [3]: no activity
IC50, MCF-7 [4]: no activity
IC50, HUVEC [5]: no activity

melting point: 280 to 282 °C
SMILES: CCc1ccc(NC(=O)CSc2nc3c(OC)cccc3c(=O)n2-c2ccc(S(N)(=O)=O)cc2)cc1 [Compound 11, N-(4-Ethylphenyl)-2-((8-methoxy-4-oxo-3-(4-sulphamoylphenyl)-3,4-dihydroquinazolin-2-yl)thio) acetamide]
IC50 [1]: 50.5 ± 1.73 µM
IC50 [2]: 42.7 ± 0.84 µM
IC50 [4]: 29.4 ± 0.33 µM
IC50 [5]: 32.9 ± 1.4 µM

melting point: 296 to 298 °C
SMILES: COc1ccc(NC(=O)CSc2nc3c(OC)cccc3c(=O)n2-c2ccc(S(N)(=O)=O)cc2)cc1 [Compound 12, 2-((8-Methoxy-4-oxo-3-(4-sulphamoylphenyl)-3,4-dihydroquinazolin-2-yl)thio)-N-(p-methoxyphenyl) acetamide]
IC50, A549 [1]: no activity
IC50, HepG2 [2]: no activity
IC50, LoVo [3]: no activity
IC50, MCF-7 [4]: no activity
IC50, HUVEC [5]: no activity

melting point: 300 to 302 °C
SMILES: CCOc1ccc(NC(=O)CSc2nc3c(OC)cccc3c(=O)n2-c2ccc(S(N)(=O)=O)cc2)cc1 [Compound 13, N-(p-Ethoxyphenyl)-2-((8-methoxy-4-oxo-3-(4-sulphamoylphenyl)-3,4-dihydroquin-azolin-2-yl)thio) acetamide]
IC50 [1]: 61.9 ± 1.35 µM
IC50 [2]: 38 ± 0.47 µM
IC50 [3]: 54.4 ± 2.07 µM
IC50 [4]: 46.7 ± 1.23 µM
IC50 [5]: 39 ± 1.4 µM

melting point: 240 to 242 °C
SMILES: COc1cc(NC(=O)CSc2nc3c(OC)cccc3c(=O)n2-c2ccc(S(N)(=O)=O)cc2)cc(OC)c1 [Compound 14, N-(3,5-Dimethoxyphenyl)-2-((8-methoxy-4-oxo-3-(4-sulphamoylphenyl)-3,4-dihydroq-uinazolin-2-yl)thio) acetamide]
IC50 [1]: 68.34 ± 0.42 µM
IC50 [2]: 72.5 ± 1.06 µM
IC50 [3]: 38.3 ± 0.65 µM
IC50 [4]: 34.6 ± 1.15 µM
IC50 [5]: 62.6 ± 2.34 µM

melting point: 290 to 292 °C
SMILES: COc1cc(NC(=O)CSc2nc3c(OC)cccc3c(=O)n2-c2ccc(S(N)(=O)=O)cc2)cc(OC)c1OC [Compound 15, 2-((8-Methoxy-4-oxo-3-(4-sulphamoylphenyl)-3,4-dihydroquinazolin-2-yl)thio)-N-(3,4,5-trimethoxyphenyl) acetamide]
IC50 [1]: 75 ± 1.74 µM
IC50 [2]: 75.2 ± 0.96 µM
IC50 [3]: 47.5 ± 4.08 µM
IC50 [4]: 74 ± 2.16 µM
IC50 [5]: 79 ± 1.09 µM

melting point: > 350 °C
SMILES: COc1cccc2c(=O)n(-c3ccc(S(N)(=O)=O)cc3)c(SCC(=O)Nc3ccc([N+](=O)[O-])cc3C)nc12 [Compound 16, 2-((8-Methoxy-4-oxo-3-(4-sulphamoylphenyl)-3,4-dihydroquinazolin-2-yl)thio)-N-(2-methyl-4-nitrophenyl) acetamide]
IC50 [1]: 67.4 ± 1.45 µM
IC50 [2]: 75.7 ± 1.85 µM
IC50 [3]: 40.98 ± 0.12 µM
IC50 [4]: 39.9 ± 0.57 µM
IC50 [5]: 80.8 ± 1.13 µM

melting point: > 350 °C
SMILES: COc1cccc2c(=O)n(-c3ccc(S(N)(=O)=O)cc3)c(SCC(=O)Nc3c(C)cccc3[N+](=O)[O-])nc12 [Compound 17, 2-((8-Methoxy-4-oxo-3-(4-sulphamoylphenyl)-3,4-dihydroquinazolin-2-yl)thio)-N-(2-methyl-6-nitrophenyl) acetamide]
IC50, A549 [1]: no activity
IC50, HepG2 [2]: no activity
IC50, LoVo [3]: no activity
IC50, MCF-7 [4]: no activity
IC50, HUVEC [5]: no activity
